In ChEMBL document CHEMBL3885861, “Open TG-GATES”:

Organism: Rattus norvegicus
Assay: Open TG-GATES - Regimen: Single
Format: toxicity, organism-based, Sprague-Dawley
Parameters: regimen Single, gender Male, age 6 weeks
Settings: in vivo, po, 0 mg/kg, route gavage, dose level Control; for APTT / Bas / Eos / Fbg / Hb / Ht / Lym / MCH / MCHC / MCV / Mono / Neu / PT / Plat / RBC / Ret / WBC: tissue Blood; for KIDNEY_L / KIDNEY_R / KIDNEY_TOTAL: tissue Kidney; for LIVER: tissue Liver; for A/G / ALP / ALT / AST / BUN / CRE / Ca / Cl / DBIL / GLC / IP / K / LDH / Na / PL / RALB / TBIL / TC / TG / TP / gamma-GTP: tissue Plasma

CCN1CCCC1CNC(=O)c1cc(S(N)(=O)=O)ccc1OC (configuration not stated) [SULPIRIDE]
TERMINAL_BW (3 h): 201.8 g | APTT (3 h): 17.6 s | Bas (3 h): 0% | Eos (3 h): 0.6% | Fbg (3 h): 247.8 mg/dL | Hb (3 h): 13.4 g/dL | Ht (3 h): 41.4% | Lym (3 h): 80.2% | MCH (3 h): 20.9 pg | MCHC (3 h): 32.3% | MCV (3 h): 64.8 fL | Mono (3 h): 2.4% | Neu (3 h): 16% | PT (3 h): 14.1 s | Plat (3 h): 117.7 x10_4/uL | RBC (3 h): 639.8 x10_4/ul | Ret (3 h): 7.5% | WBC (3 h): 81.5 x10_2/uL | KIDNEY_L (3 h): 0.9 g | KIDNEY_R (3 h): 0.9 g | KIDNEY_TOTAL (3 h): 1.9 g | LIVER (3 h): 8.6 g | A/G (3 h): 0.9 | ALP (3 h): 1902.2 IU/L | ALT (3 h): 49 IU/L | AST (3 h): 92.6 IU/L | BUN (3 h): 10.6 mg/dL | CRE (3 h): 0.2 mg/dL | Ca (3 h): 11 mg/dL | Cl (3 h): 105.8 meq/L | DBIL (3 h): 0.01 mg/dL | GLC (3 h): 177 mg/dL | IP (3 h): 8.9 mg/dL | K (3 h): 4.5 meq/L | LDH (3 h): 173.6 IU/L | Na (3 h): 140.8 meq/L | PL (3 h): 116 mg/dL | RALB (3 h): 2.4 g/dL | TBIL (3 h): 0.074 mg/dL | TC (3 h): 60.8 mg/dL | TG (3 h): 50.2 mg/dL | TP (3 h): 5.1 g/dL | gamma-GTP (3 h): 1.6 IU/L | TERMINAL_BW (6 h): 198.5 g | APTT (6 h): 17.4 s | Bas (6 h): 0.2% | Eos (6 h): 0.8% | Fbg (6 h): 276.2 mg/dL | Hb (6 h): 13.3 g/dL | Ht (6 h): 41.6% | Lym (6 h): 79.4% | MCH (6 h): 20.5 pg | MCHC (6 h): 32% | MCV (6 h): 64.1 fL | Mono (6 h): 2.4% | Neu (6 h): 16.4% | PT (6 h): 13.5 s | Plat (6 h): 123.5 x10_4/uL | RBC (6 h): 649.6 x10_4/ul | Ret (6 h): 8% | WBC (6 h): 87.4 x10_2/uL | KIDNEY_L (6 h): 0.9 g | KIDNEY_R (6 h): 0.9 g | KIDNEY_TOTAL (6 h): 1.8 g | LIVER (6 h): 8.6 g | A/G (6 h): 0.9 | ALP (6 h): 1354.6 IU/L | ALT (6 h): 38.2 IU/L | AST (6 h): 78 IU/L | BUN (6 h): 9 mg/dL | CRE (6 h): 0.2 mg/dL | Ca (6 h): 10.7 mg/dL | Cl (6 h): 105 meq/L | DBIL (6 h): 0.01 mg/dL | GLC (6 h): 192.2 mg/dL | IP (6 h): 9.3 mg/dL | K (6 h): 4.3 meq/L | LDH (6 h): 105 IU/L | Na (6 h): 141.2 meq/L | PL (6 h): 128.6 mg/dL | RALB (6 h): 2.5 g/dL | TBIL (6 h): 0.072 mg/dL | TC (6 h): 72.2 mg/dL | TG (6 h): 53 mg/dL | TP (6 h): 5.2 g/dL | gamma-GTP (6 h): 1.8 IU/L | TERMINAL_BW (9 h): 200.2 g | APTT (9 h): 16.9 s | Bas (9 h): 0.2% | Eos (9 h): 1% | Fbg (9 h): 302.8 mg/dL | Hb (9 h): 13.3 g/dL | Ht (9 h): 41.6% | Lym (9 h): 74.2% | MCH (9 h): 19.8 pg | MCHC (9 h): 32% | MCV (9 h): 62 fL | Mono (9 h): 2.6% | Neu (9 h): 21.6% | PT (9 h): 13.5 s | Plat (9 h): 126.7 x10_4/uL | RBC (9 h): 670.8 x10_4/ul | Ret (9 h): 7.8% | WBC (9 h): 76.7 x10_2/uL | KIDNEY_L (9 h): 0.9 g | KIDNEY_R (9 h): 0.9 g | KIDNEY_TOTAL (9 h): 1.8 g | LIVER (9 h): 8.1 g | A/G (9 h): 0.9 | ALP (9 h): 1441.6 IU/L | ALT (9 h): 69 IU/L | AST (9 h): 70.4 IU/L | BUN (9 h): 7.6 mg/dL | CRE (9 h): 0.2 mg/dL | Ca (9 h): 10.7 mg/dL | Cl (9 h): 105.4 meq/L | DBIL (9 h): 0.006 mg/dL | GLC (9 h): 170.8 mg/dL | IP (9 h): 9.8 mg/dL | K (9 h): 3.9 meq/L | LDH (9 h): 132.4 IU/L | Na (9 h): 141.4 meq/L | PL (9 h): 125 mg/dL | RALB (9 h): 2.5 g/dL | TBIL (9 h): 0.074 mg/dL | TC (9 h): 70.8 mg/dL | TG (9 h): 61 mg/dL | TP (9 h): 5.3 g/dL | gamma-GTP (9 h): 1.4 IU/L | TERMINAL_BW (24 h): 216.8 g | APTT (24 h): 17.3 s | Bas (24 h): 0.4% | Eos (24 h): 1% | Fbg (24 h): 278 mg/dL | Hb (24 h): 13.3 g/dL | Ht (24 h): 41.1% | Lym (24 h): 76.4% | MCH (24 h): 20.7 pg | MCHC (24 h): 32.4% | MCV (24 h): 63.9 fL | Mono (24 h): 3.2% | Neu (24 h): 18.4% | PT (24 h): 13.1 s | Plat (24 h): 127.4 x10_4/uL | RBC (24 h): 642.4 x10_4/ul | Ret (24 h): 7.4% | WBC (24 h): 96.8 x10_2/uL | KIDNEY_L (24 h): 0.9 g | KIDNEY_R (24 h): 0.9 g | KIDNEY_TOTAL (24 h): 1.8 g | LIVER (24 h): 9.8 g | A/G (24 h): 0.9 | ALP (24 h): 1626.2 IU/L | ALT (24 h): 39.6 IU/L | AST (24 h): 77.2 IU/L | BUN (24 h): 14.6 mg/dL | CRE (24 h): 0.2 mg/dL | Ca (24 h): 10.9 mg/dL | Cl (24 h): 106.4 meq/L | DBIL (24 h): 0.012 mg/dL | GLC (24 h): 186.2 mg/dL | IP (24 h): 7.5 mg/dL | K (24 h): 4.2 meq/L | LDH (24 h): 98.2 IU/L | Na (24 h): 141.6 meq/L | PL (24 h): 140 mg/dL | RALB (24 h): 2.5 g/dL | TBIL (24 h): 0.058 mg/dL | TC (24 h): 74 mg/dL | TG (24 h): 96.8 mg/dL | TP (24 h): 5.4 g/dL | gamma-GTP (24 h): 1 IU/L
